Assay results from patent publication US6787359B1, “Gene transfer methods” (Takara Shuzo Co., Ltd., priority 1998, dated 2004).

Key:
HL-60 cells = assay type: cell-based, human; details: no washing
Experimental: (§1) Recombinant retrovirus-producer cells obtained by introducing a retrovirus vector plasmid pLEIN into φCRIP cells were cultured in DMEM containing 10% CS. When the cells grew to semi-confluence in a 10-cm plate, the medium was changed to 7 ml of RPMI 1640 containing 10% FCS or 7 ml of RPMI 1640 containing 5 mM sodium butyrate (Nacalai Tesque) and 10% FCS. After the cells were cultured for 24 hours, supernatants were filtered through 0.45 μm filters to obtain virus supernatants. The titer of the virus supernatant was determined as described in Example 2. The titer of the virus supernatant without sodium butyrate was 3.3×10^4 cfu/ml, whereas the titer of the virus supernatant containing 5 mM sodium butyrate was 2×10^6 cfu/ml.
HL-60 cells were used as target cells. 0.5 ml of the above-mentioned virus supernatant was added to each well of a plate coated with CH-296 as described in Example 12. The plate was incubated at 37° C. for 3 hours for contacting and binding the virus particles with CH-296. After incubation, the plate was […]. 0.5 ml of RPMI 1640 medium supplemented with 10% FCS containing 5×10^4 HL-60 cells was added to the well. As a control, 5×10^4 HL-60 cells were suspended in 0.5 ml of the above-mentioned virus supernatant and then immediately added to the plate coated with CH-296. These plates were incubated at 37° C. overnight to allow the virus to infect cells. After the incubation, 1 ml of RPMI 1640 medium containing 10% FCS was added to the well. The plate was incubated for additional 48 hours. The cell number was then counted.

NIH/3T3 cells = assay: Titer of virus supernatant of producer cells cultured with sodium butyrate; assay type: cell-based; details: φCRIP/pLEIN producer cells cultured 24 hours with 5 mM sodium butyrate; without: 3.3×10^4 cfu/ml
Experimental: The titer of the virus supernatant was measured according to a standard method [J. Virol., 62:1120-1124 (1988)] in which the efficiency of transferring a neomycin phosphotransferase gene into NIH/3T3 cells (ATCC CRL-1658) is used as an index. The number of infectious particles contained in 1 ml of the supernatant (cfu/ml) was calculated. The amount of the virus supernatant to be added in the experiments hereinbelow was determined based on the calculated value, i.e., the titer of the supernatant.
as §1

L1210 cells [1] = assay: Eco-EGFP gene transfer on plates with covalently immobilized CH-271 and (Mannose)9-(GlucNAc)2-Asn; assay type: cell-based, mouse; details: wells with sugar chain and CH-271 immobilized
Experimental: A microplate to which CH-271 and (Mannose)9-(GlucNAc)2-Asn were immobilized through covalent bonds was prepared. […] 50 μl each of solutions containing 2% BSA or 80 μg/ml of CH-271 as well as (Mannose)9-(GlucNAc)2-Asn at a varying concentration was added to each well of the activated 96-well Carboplate. The plate was subjected to immobilization reaction at 37° C. for 2 hours. The plate was blocked using 0.2% glycine solution at 4° C. for 15 hours and then used for the following gene transfer experiments.
10^3 L1210 cells and 0.1 ml Eco-EGFP virus supernatant (10^6 cfu/ml) were added to the well of the microplate. After the plate was incubated for 48 hours, 0.1 ml of fresh RPMI 1640 medium containing FCS, penicillin and streptomycin was added to the well. The plate was incubated for additional 24 hours. The cells were collected and washed. The gene transfer efficiency was calculated as described in Example 4.

[2] = tested on: mouse leukemia L1210 cells; assay: Gene transfer with PM5neo virus on coated plates, G418-resistant cells by WST-1 absorbance; assay type: cell-based; details: for Absorbance difference (450 nm-650 nm), G418-resistant cells: Experiment 2
Experimental: 50 μl of […] solution of H-271, H-296, C-274, CH-271, CH-296, ColV, human basic fibroblast growth factor (bFGF; Progen), tenascin (Gibco) or epidermal growth factor (EGF; Takara Shuzo), or 50 μl of 2% bovine serum albumin (BSA, Sigma) was added to each well of a 96-well non-treated microplate for cell culture (Falcon). The plate was allowed to stand at 4° C. overnight and then washed twice with phosphate buffered saline (PBS; Roman Kogyo). Alternatively, after the plate was treated as described above, 0.1 ml of 4 mg/ml solution of 1-ethyl-3-dimethylaminopropylcarbodiimide hydrochloride (Sigma) in sterile pure water was dispensed to each well. The reaction was allowed to proceed at 37° C. for 2 hours. The plate was washed extensively with pure water to prepare a carbodiimide-treated plate. These plates were stored at 4° C. until viral infection experiments were conducted.
10^4 mouse leukemia L1210 cells (ATCC CCL-219), which had been grown in RPMI 1640 medium (Bio Whittaker) supplemented with 10% FCS, 50 units/ml penicillin and 50 μg/ml streptomycin, and 50 μl of PM5neo virus supernatant (10^4 cfu/ml) were added to the well of the microplate. After the plate was incubated for 24 hours, the medium was changed to the same medium containing G418 (Gibco) at a final concentration of 0.75 mg/ml, and the plate was then incubated for additional 48 hours. G418-resistance cells were assessed according to the method as described in S. Kim et al. [Gene Therapy, 3:1018-1020 (1996)] with a partial modification in which color developed using Premix WST-1 reagent (Takara Shuzo) was measured as absorbance at 450 nm. […] Absorbance at 450 nm and 650 nm was then measured using a microplate reader, and the difference (450 nm-650 nm) was calculated. The value obtained using a plate coated with 2% BSA without carbodiimide treatment was defined as background.

L1210 cells [3] = assay: Eco-EGFP gene transfer with laminin and virus-binding substance, flow cytometry; assay type: cell-based, mouse; details: no CH-296/CH-271
Experimental: Mouse laminin (Gibco) or human laminin (Takara Shuzo) was used in combination with a functional substance having an activity of binding to a virus to carry out gene transfer experiment. A 24-well non-treated microplate for cell culture (Falcon) used in the experiment was coated with these functional substances according to the following two methods.
The cocktail method: A mixture of two functional substances is added to the plate. The plate is allowed to stand at 4° C. overnight. The plate is blocked with 2% BSA at 37° C. for 20 minutes and then washed with PBS.
The pre-coating method: A solution of a functional substance having an activity of binding to a virus is added to the plate. The plate is allowed to stand at 4° C. overnight. The solution is removed. A laminin solution is added to the plate. The plate is incubated at 37° C. for 2 hours, blocked with 2% BSA, and then washed with PBS.
0.5 ml of the solution of the functional substance was used to coat each well. 10^5 L1210 cells and 0.5 ml of Eco-EGFP virus supernatant (10^5 cfu/ml) were added to the well. The plate was incubated for 24 hours. After incubation, the cells were collected by using a cell detachment buffer (Bio Whittaker) and washed. EGFP-expressing cells were analyzed by flow cytometry using FACSVantage (Becton Dickinson) at an excitation wavelength of 488 nm and an emission wavelength of 515-545 nm. The gene transfer efficiency (the ratio of EGFP-expressing cells to total cells) was calculated.

[4] = tested on: mouse leukemia L1210 cells; assay: Effect of sugar chain-cleaving enzymes on CH-271/laminin plates, PM5neo gene transfer, G418-resistant cells; assay type: cell-based
Experimental: A 96-well microplate was coated using 50 μl/well of a mixture containing 5 μg/ml of mouse laminin and 80 μg/ml of CH-271 as described in Example 5. Effects of treatment of the plate with various enzymes having activities of cleaving sugar chains on gene transfer efficiency were examined.
Plates were treated with enzymes as follows: Enzyme solutions containing 500 mU/ml O-glycanase (endo-α-N-acetylgalactosaminidase, Seikagaku Corp.), 500 mU/ml endoglycosidase H (endo-β-N-acetylglucosaminidase H, Seikagaku Corp.), 250 mU/ml endo-β-galactosidase (Seikagaku Corp.) and 2 mU/ml α-mannosidase (Seikagaku Corp.) in 50 mM citrate-phosphate buffer (pH 5.0) were prepared. An enzyme solution containing 250 mU/ml glycopeptidase F (peptide: N-glycosidase F, Takara Shuzo) in 100 mM tris-hydrochloride buffer (pH 8.6) was prepared. 50 μl each of the enzyme solutions was dispensed in each well for reacting at 37° C. for 20 hours. The plate was then washed three times with PBS and then used for viral infection experiments. 10^4 mouse leukemia L1210 cells grown in RPMI 1640 medium supplemented with 10% FCS, 50 units/ml penicillin and […], and 50 μl of PM5neo virus supernatant (10^4 cfu/ml) were added to each well of the microplate. The plate was incubated for 24 hours. […] G418-resistance cells were assessed as described in Example 3.

[5] = Control: cells suspended in supernatant with sodium butyrate, added to CH-296 plate
[6] = plate treated with carbodiimide

CCCC(=O)[O-].[Na+] [sodium butyrate]
Cell number (cells/plate) (HL-60 cells; [5]): 4.0 x 10^5 cells/plate | Gene transfer efficiency (%) (HL-60 cells; [5]): 35.46% | Viable cell number relative to supernatant without sodium butyrate (HL-60 cells; control group): one fourth | Titer of the virus supernatant (NIH/3T3 cells): 2×10^6 cfu/ml

(Mannose)9-(GlucNAc)2-Asn
Gene transfer efficiency (in words) (L1210 cells [1]): increased depending on the concentration of sugar chain used

Tenascin: tenascin (Gibco)
Absorbance difference (450 nm-650 nm), G418-resistant cells [2, 6]: 0.323 ± 0.037 | Absorbance difference (450 nm-650 nm), G418-resistant cells ([2]; plate untreated): 0.060 ± 0.021 | Appearance of G418-resistant cells (in words) ([2]; carbodiimide treatment carried out): increased

bFGF: human basic fibroblast growth factor (Progen)
Absorbance difference (450 nm-650 nm), G418-resistant cells [2, 6]: 0.580 ± 0.046 | Absorbance difference (450 nm-650 nm), G418-resistant cells ([2]; plate untreated): 0.425 ± 0.014 | Gene transfer efficiency (in words) ([2]; known virus-binding substances, Table 1): increase in gene transfer efficiency was observed

laminin
Gene transfer efficiency (L1210 cells [3]; laminin 5 μg/ml alone): 4.09% | Gene transfer efficiency (L1210 cells [3]; laminin 10 μg/ml alone): 6.76% | Gene transfer efficiency (L1210 cells [3]; laminin 20 μg/ml alone): 6.89% | Gene transfer-promoting effect of laminin after enzyme treatment (in words) ([4]; treatment of the plate with endoglycosidase H): completely abolished | Gene transfer efficiency after enzyme treatment (in words) ([4]; treatment of the plate with α-mannosidase or glycopeptidase F): decreased the gene transfer efficiency in some degree
